Common to all, as to experiment: relative viability (nuclei count vs DMSO), 5 days (fraction); higher = more cells survive
Compound in assay [1]: CC1=CC=C(C=C1)C(=O)CN2C3=C(CCCC3)SC2=N [Pifithrin_alpha] + Cc1cc(Nc2cc(N3CCN(C)CC3)nc(Sc3ccc(NC(=O)C4CC4)cc3)n2)n[nH]1 [Tozasertib] (partner 0.1 µM)
Summed up:
(§1)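 Relative viability divides the nuclei count in treated wells by that in vehicle wells. Lung cancer cell lines were seeded in 1536-well plates, dosed by pin tool the next day, and fixed and stained after 5 days in one step with final 0.05% Triton X-100, 1% formaldehyde and 1 ug/ml Hoechst. Dosing was a single drug or a fixed anchor-drug dose plus five library-drug doses (not always all listed) in √10 steps, and values are medians of duplicate plates imaged at 4×.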

Compound in assay [2]: CC1=CC=C(C=C1)C(=O)CN2C3=C(CCCC3)SC2=N [Pifithrin_alpha] + O=C(CCCCCCC(=O)Nc1ccccc1)NO [Vorinostat] (partner 1 µM)
A digest of the protocol: as §1

Compound in the assay “Axitinib + Linsitinib”: CNC(=O)c1ccccc1Sc1ccc2c(/C=C/c3ccccn3)n[nH]c2c1 [Axitinib] + C[C@]1(O)C[C@@H](c2nc(-c3ccc4ccc(-c5ccccc5)nc4c3)c3c(N)nccn32)C1 [Linsitinib] (partner 1 µM)
A digest of the protocol:
as §1

Compound in the assay “Bemcentinib + Phenformin”: Nc1nc(Nc2ccc3c(c2)CC[C@@H](N2CCCC2)CC3)nn1-c1cc2c(nn1)-c1ccccc1CCC2 [Bemcentinib] + N=C(N)NC(=N)NCCc1ccccc1 [Phenformin] (partner 250 µM)
Summed up:
as §1

As to PC-14, the relative viability in assay [1] (first compound 3.162 µM) came out at 0.576; in assay [1] (first compound 10 µM) it was 0.551; in assay [1] (first compound 31.62 µM), 0.396; in assay [1] (first compound 100 µM) it was 0.291; in assay [2] (first compound 1 µM) it was 0.626; in assay [2] (first compound 3.162 µM), 0.77. Moreover, the relative viability stood at 0.802 in assay [2] (first compound 10 µM); 0.414 in assay [2] (first compound 31.62 µM); 0.625 in assay [2] (first compound 100 µM); 1.07 with Axitinib + Linsitinib (first compound 0.005 µM); 0.895 in the assay with Axitinib + Linsitinib (first compound 0.01581 µM); 1.03 with Axitinib + Linsitinib (first compound 0.05 µM). For the same cell line, the relative viability came out at 0.945 with Axitinib + Linsitinib (first compound 0.1581 µM); 0.944 with Axitinib + Linsitinib (first compound 0.5 µM); 0.458 with Bemcentinib + Phenformin (first compound 0.04 µM); 0.704 with Bemcentinib + Phenformin (first compound 0.1265 µM); 0.648 with Bemcentinib + Phenformin (first compound 0.4 µM); 0.581 with Bemcentinib + Phenformin (first compound 1.265 µM). Also, the relative viability with Bemcentinib + Phenformin (first compound 4 µM) stood at 0.465.
Consider RERF-LC-KJ, for which the relative viability in assay [1] (first compound 1 µM) is 0.498; in assay [1] (first compound 3.162 µM) it was 0.412; in assay [1] (first compound 10 µM) it was 0.308; in assay [1] (first compound 31.62 µM) it was 0.253; in assay [1] (first compound 100 µM), 0.289; in assay [2] (first compound 1 µM) it was 0.329. For the same cell line, the relative viability in assay [2] (first compound 3.162 µM) worked out at 0.627; in assay [2] (first compound 10 µM), 0.547; in assay [2] (first compound 31.62 µM), 0.448; in assay [2] (first compound 100 µM), 0.488; with Axitinib + Linsitinib (first compound 0.005 µM), 0.962; with Axitinib + Linsitinib (first compound 0.01581 µM) it was 0.81. For the same cell line, the relative viability with Axitinib + Linsitinib (first compound 0.05 µM) was found to be 0.901; with Axitinib + Linsitinib (first compound 0.1581 µM), 0.834; with Axitinib + Linsitinib (first compound 0.5 µM), 0.947; with Bemcentinib + Phenformin (first compound 0.04 µM), 0.42; with Bemcentinib + Phenformin (first compound 0.1265 µM), 0.424; with Bemcentinib + Phenformin (first compound 0.4 µM), 0.412. For the same cell line, the relative viability with Bemcentinib + Phenformin (first compound 1.265 µM) came to 0.391; with Bemcentinib + Phenformin (first compound 4 µM), 0.334.
In the case of SK-LU-1, the relative viability in assay [1] (first compound 1 µM) was found to be 0.291; in assay [1] (first compound 3.162 µM), 0.329; in assay [1] (first compound 10 µM) it was 0.291; in assay [1] (first compound 100 µM), 0.316; in assay [2] (first compound 1 µM) it was 0.94; in assay [2] (first compound 3.162 µM) it was 0.862. Also, the relative viability worked out at 0.774 in assay [2] (first compound 10 µM); 0.676 in assay [2] (first compound 31.62 µM); 0.75 in assay [2] (first compound 100 µM); 1.25 with Axitinib + Linsitinib (first compound 0.005 µM); 1.28 in the assay with Axitinib + Linsitinib (first compound 0.01581 µM); 1.18 in the assay with Axitinib + Linsitinib (first compound 0.05 µM). Also, the relative viability is 1.17 with Axitinib + Linsitinib (first compound 0.1581 µM); 1.36 with Axitinib + Linsitinib (first compound 0.5 µM); 0.521 with Bemcentinib + Phenformin (first compound 0.04 µM); 0.633 with Bemcentinib + Phenformin (first compound 0.1265 µM); 0.485 with Bemcentinib + Phenformin (first compound 0.4 µM); 0.548 with Bemcentinib + Phenformin (first compound 1.265 µM). Moreover, the relative viability with Bemcentinib + Phenformin (first compound 4 µM) came out at 0.6.
Consider SK-MES-1, for which the relative viability in assay [1] (first compound 1 µM) was 0.805; in assay [1] (first compound 3.162 µM) it was 0.749; in assay [1] (first compound 10 µM) it was 0.613; in assay [1] (first compound 31.62 µM) it was 0.392; in assay [1] (first compound 100 µM), 0.404; in assay [2] (first compound 1 µM), 1.01. Also, the relative viability in assay [2] (first compound 3.162 µM) was determined as 0.95; in assay [2] (first compound 10 µM) it was 0.959; in assay [2] (first compound 31.62 µM), 0.591; in assay [2] (first compound 100 µM), 0.852; with Axitinib + Linsitinib (first compound 0.005 µM) it was 1.12; in the assay with Axitinib + Linsitinib (first compound 0.01581 µM), 1.07. For the same cell line, the relative viability in the assay with Axitinib + Linsitinib (first compound 0.05 µM) is 1.08; with Axitinib + Linsitinib (first compound 0.1581 µM), 1.14; with Axitinib + Linsitinib (first compound 0.5 µM), 1.22; in the assay with Bemcentinib + Phenformin (first compound 0.04 µM), 0.687; with Bemcentinib + Phenformin (first compound 0.1265 µM), 0.691; in the assay with Bemcentinib + Phenformin (first compound 0.4 µM), 0.652. Further, the relative viability was 0.758 in the assay with Bemcentinib + Phenformin (first compound 1.265 µM) and 0.667 in the assay with Bemcentinib + Phenformin (first compound 4 µM).
In the case of SW 1573, the relative viability in assay [1] (first compound 1 µM) turned out to be 0.184; in assay [1] (first compound 3.162 µM), 0.165; in assay [1] (first compound 10 µM) it was 0.177; in assay [1] (first compound 31.62 µM) it was 0.204; in assay [1] (first compound 100 µM) it was 0.174; in assay [2] (first compound 3.162 µM), 0.787. Also, the relative viability in assay [2] (first compound 10 µM) amounted to 0.719; in assay [2] (first compound 31.62 µM), 0.498; in assay [2] (first compound 100 µM) it was 0.82; with Axitinib + Linsitinib (first compound 0.005 µM), 0.911; in the assay with Axitinib + Linsitinib (first compound 0.01581 µM), 0.855; with Axitinib + Linsitinib (first compound 0.05 µM), 0.899. Moreover, the relative viability with Axitinib + Linsitinib (first compound 0.1581 µM) was found to be 0.8; in the assay with Axitinib + Linsitinib (first compound 0.5 µM), 0.84; with Bemcentinib + Phenformin (first compound 0.04 µM), 0.415; in the assay with Bemcentinib + Phenformin (first compound 0.1265 µM), 0.373; with Bemcentinib + Phenformin (first compound 0.4 µM) it was 0.363; with Bemcentinib + Phenformin (first compound 1.265 µM) it was 0.368. The relative viability with Bemcentinib + Phenformin (first compound 4 µM) came to 0.365.
With UMC-11, the relative viability in assay [1] (first compound 1 µM) came to 0.179; in assay [1] (first compound 3.162 µM) it was 0.207; in assay [1] (first compound 10 µM), 0.198; in assay [1] (first compound 31.62 µM) it was 0.19; in assay [1] (first compound 100 µM), 0.175; in assay [2] (first compound 1 µM) it was 0.342. Besides, the relative viability stood at 0.382 in assay [2] (first compound 3.162 µM); 0.343 in assay [2] (first compound 10 µM); 0.245 in assay [2] (first compound 31.62 µM); 0.256 in assay [2] (first compound 100 µM); 1.08 with Axitinib + Linsitinib (first compound 0.005 µM); 0.982 in the assay with Axitinib + Linsitinib (first compound 0.01581 µM). Also, the relative viability with Axitinib + Linsitinib (first compound 0.05 µM) came out at 1.02; with Axitinib + Linsitinib (first compound 0.1581 µM) it was 1.04; with Axitinib + Linsitinib (first compound 0.5 µM) it was 1.1; with Bemcentinib + Phenformin (first compound 0.04 µM), 0.324; with Bemcentinib + Phenformin (first compound 0.1265 µM), 0.355; with Bemcentinib + Phenformin (first compound 0.4 µM) it was 0.365. Moreover, the relative viability stood at 0.314 with Bemcentinib + Phenformin (first compound 1.265 µM) and 0.312 with Bemcentinib + Phenformin (first compound 4 µM).
